In one assay the test system is MRC5. Briefly: Antiproliferative activity against human MRC5 cells assessed as reduction in cell viability after 48 hrs by MTT assay. It is filed as cell-based. The following applies: MRC5, 48 h.
The next assay relates to MCF7. The assay is described as follows: Antiproliferative activity against human MCF7 cells assessed as reduction in cell viability after 48 hrs by MTT assay. It is filed as functional, cell-based. The following applies: MCF7, 48 h. In general terms: Formazan colour is commonly taken as a measure of viable cells.
In the next assay the test system is Caco-2. The assay is described as follows: Antiproliferative activity against human Caco-2 cells assessed as reduction in cell viability after 48 hrs by MTT assay. It is filed as functional, cell-based. The following applies: Caco-2, 48 h.
The next assay has as its system MDA-MB-231. The assay is described as follows: Antiproliferative activity against human MDA-MB-231 cells assessed as reduction in cell viability after 48 hrs by MTT assay. The following applies: MDA-MB-231, 48 h. The format is functional, cell-based.
Assay [1] has as its system PANC-1. The assay is described as follows: Antiproliferative activity against human PANC-1 cells assessed as reduction in cell viability after 48 hrs by MTT assay. The following applies: PANC-1, 48 h. The format is functional, cell-based.
Assay [2] concerns PANC-1. Briefly: Induction of cell cycle arrest in human PANC-1 cells assessed as accumulation of cells at G0/G1 phase at 10 uM incubated for 48 hrs propidium iodide-A staining-based flow cytometric analysis (reference value: 48.58%). It is filed as functional. (In flow cytometry, cells or beads pass a laser one at a time.)
Assay [3] has as its system PANC-1. The assay is described as follows: Induction of apoptosis in human PANC-1 cells assessed as necrotic cells at 5 uM incubated for 48 hrs by annexin V FITC and propidium iodide staining based flow cytometry analysis (reference value: 0%). The format is functional.
In assay [4] the test system is PANC-1. The assay is described as follows: Induction of cell cycle arrest in human PANC-1 cells assessed as accumulation of cells at G2/M phase at 5 uM incubated for 48 hrs propidium iodide-A staining-based flow cytometric analysis (reference value: 6.71%). It is filed as functional.
Assay [5] deals with PANC-1. The assay is described as follows: Induction of cell cycle arrest in human PANC-1 cells assessed as accumulation of cells at S phase at 5 uM incubated for 48 hrs propidium iodide-A staining-based flow cytometric analysis (reference value: 44.71%). It is filed as functional.
For assay [6], the system named is PANC-1. Briefly: Induction of cell cycle arrest in human PANC-1 cells assessed as accumulation of cells at G0/G1 phase at 5 uM incubated for 48 hrs propidium iodide-A staining-based flow cytometric analysis (reference value: 48.58%). The format is functional.
The test system of assay [7] is PANC-1. The assay is described as follows: Induction of apoptosis in human PANC-1 cells assessed as increase in caspase 9 activity. The format is functional, cell-based. The following applies: dose 5-10 µM.
The subject of assay [8] is PANC-1. The assay is described as follows: Induction of apoptosis in human PANC-1 cells assessed as early apoptotic cells at 5 uM incubated for 48 hrs by annexin V FITC and propidium iodide staining based flow cytometry analysis (reference value: 0.2%). The format is functional.
In assay [9] the test system is PANC-1. The assay is described as follows: Induction of cell cycle arrest in human PANC-1 cells assessed as accumulation of cells at S phase at 10 uM incubated for 48 hrs propidium iodide-A staining-based flow cytometric analysis (reference value: 44.71%). The format is functional.
Assay [10] deals with PANC-1. The assay is described as follows: Induction of apoptosis in human PANC-1 cells assessed as early apoptotic cells at 10 uM incubated for 48 hrs by annexin V FITC and propidium iodide staining based flow cytometry analysis (reference value: 0.2%). The format is functional.
Assay [11] relates to PANC-1. Briefly: Induction of apoptosis in human PANC-1 cells assessed as increase in caspase 3 activity. It is filed as functional, cell-based. The note with it: dose 5-10 µM.
In assay [12] the test system is PANC-1. Briefly: Induction of apoptosis in human PANC-1 cells assessed as late apoptotic cells at 5 uM incubated for 48 hrs by annexin V FITC and propidium iodide staining based flow cytometry analysis (reference value: 0.1%). The format is functional.
The subject of assay [13] is PANC-1. The assay is described as follows: Induction of apoptosis in human PANC-1 cells assessed as necrotic cells at 10 uM incubated for 48 hrs by annexin V FITC and propidium iodide staining based flow cytometry analysis (reference value: 0%). It is filed as functional.
Assay [14] concerns PANC-1. Briefly: Induction of apoptosis in human PANC-1 cells assessed as viable cells at 10 uM incubated for 48 hrs by annexin V FITC and propidium iodide staining based flow cytometry analysis (reference value: 99.5%). The format is functional. The following applies: read-out: Activity.
Assay [15] relates to PANC-1. The assay is described as follows: Induction of apoptosis in human PANC-1 cells assessed as viable cells at 5 uM incubated for 48 hrs by annexin V FITC and propidium iodide staining based flow cytometry analysis (reference value: 99.5%). The format is functional. The note with it: read-out: Activity.
The subject of assay [16] is PANC-1. Briefly: Induction of cell cycle arrest in human PANC-1 cells assessed as accumulation of cells at G2/M phase at 10 uM incubated for 48 hrs propidium iodide-A staining-based flow cytometric analysis (reference value: 6.71%). It is filed as functional.
Assay [17] deals with PANC-1. Briefly: Induction of apoptosis in human PANC-1 cells assessed as late apoptotic cells at 10 uM incubated for 48 hrs by annexin V FITC and propidium iodide staining based flow cytometry analysis (reference value: 0.1%). It is filed as functional.

Broadly, the IC50 is the midpoint of a concentration-inhibition curve.

As for `COc1ccc(/C=C/c2nnc(-c3[nH]nc4c3Cc3cc(F)ccc3-4)o2)cc1OC`, the IC50 in the assay on MRC5 is 58 µM; in the assay with MCF7 it was 18.1 µM; in the assay with Caco-2 it was 18.7 µM; in the assay on MDA-MB-231 it was 17.6 µM; in the assay on PANC-1 [1] it was 23 µM.
On to `C(=C\c1nnc(-c2[nH]nc3c2Cc2ccccc2-3)o1)/c1ccccc1`, for which the IC50 in the assay on MRC5 was 45 µM; with MCF7, 22.7 µM; with Caco-2 it was 14.8 µM; in the assay on MDA-MB-231 it was 18.7 µM; with PANC-1 [1], greater than 50 µM.
With `COc1ccc(/C=C/c2nnc(-c3[nH]nc4c3Cc3ccccc3-4)o2)cc1`, the IC50 amounted to 38 µM in the assay with MRC5; 17.1 µM with MCF7; 39.7 µM in the assay on Caco-2; 13.5 µM in the assay with MDA-MB-231; 20.6 µM in the assay on PANC-1 [1].
The corresponding values for `COc1cc(/C=C/c2nnc(-c3[nH]nc4c3Cc3cc(F)ccc3-4)o2)cc(OC)c1OC` are 61 µM, 44.8 µM, 16.1 µM, 17.2 µM and 15.5 µM.
On to `COc1ccc2c(c1)Cc1c-2n[nH]c1-c1nnc(/C=C/c2ccc([N+](=O)[O-])cc2)o1`, for which the Activity in the assay on PANC-1 [2] is 32.78%; in the assay with PANC-1 [3], 4.6%; with PANC-1 [4], 17.85%; in the assay with PANC-1 [5], 46.6%; in the assay with PANC-1 [6], 36.55%; in the assay on PANC-1 [7], “Dose-Dependent Effect”. Also, the Activity is 1.9% in the assay with PANC-1 [8]; 59.87% with PANC-1 [9]; 5.5% in the assay on PANC-1 [10]; “Dose-Dependent Effect” in the assay with PANC-1 [11]; 16.5% with PANC-1 [12]; 7.5% with PANC-1 [13]. Moreover, the Activity with PANC-1 [16] came to 7.35%; in the assay on PANC-1 [17], 27.2%. Further, the IC50 in the assay with MRC5 was 41 µM; with MCF7, 20.6 µM; with Caco-2, 57.1 µM; in the assay with MDA-MB-231, 21.3 µM; in the assay with PANC-1 [1] it was 7.4 µM. The viability at 10 µM in the assay with PANC-1 [14] came out at 60.3%. Besides, in the assay with PANC-1 [15], the viability at 5 µM is 76.7%.
Turning to `COc1ccc(/C=C/c2nnc(-c3[nH]nc4c3Cc3cc(F)ccc3-4)o2)cc1`, the IC50 amounted to 52 µM in the assay on MRC5; 63.8 µM in the assay with MCF7; 15.6 µM in the assay on Caco-2; 37.2 µM in the assay on MDA-MB-231; 39.9 µM in the assay with PANC-1 [1].
The matching figures for `COc1ccc(/C=C/c2nnc(-c3[nH]nc4c3Cc3cc(OC)c(OC)cc3-4)o2)cc1OC`: 63 µM, 14.5 µM, 22.7 µM, 23.2 µM and greater than 100 µM.
The corresponding values for `COc1ccc2c(c1)Cc1c-2n[nH]c1-c1nnc(/C=C/c2ccccc2)o1` are 65 µM, 67.6 µM, 13.1 µM, 12.8 µM and 26 µM.
`COc1cc2c(cc1OC)-c1n[nH]c(-c3nnc(/C=C/c4cc(OC)c(OC)c(OC)c4)o3)c1C2`: the IC50 was determined as 77 µM in the assay on MRC5; 14.4 µM in the assay with MCF7; 57.4 µM in the assay on Caco-2; 13.5 µM in the assay on MDA-MB-231; 18.4 µM with PANC-1 [1].
Consider `COc1ccc(/C=C/c2nnc(-c3[nH]nc4c3Cc3ccccc3-4)o2)cc1OC`, for which the IC50 in the assay with MRC5 was determined as 63 µM; with MCF7, 56.2 µM; with Caco-2 it was 22.8 µM; in the assay with MDA-MB-231, 26 µM; in the assay with PANC-1 [1] it was 36.4 µM.
Consider `O=[N+]([O-])c1ccc(/C=C/c2nnc(-c3[nH]nc4c3Cc3cc(F)ccc3-4)o2)cc1`, for which the IC50 in the assay with MRC5 was 89 µM; with Caco-2 it was greater than 100 µM; in the assay with MDA-MB-231 it was 21.9 µM; in the assay on PANC-1 [1] it was 16.8 µM.
Take `COc1cc2c(cc1OC)-c1n[nH]c(-c3nnc(/C=C/c4ccc([N+](=O)[O-])cc4)o3)c1C2`: the Activity in the assay on PANC-1 [2] was 24.94%; in the assay on PANC-1 [3], 1.2%; with PANC-1 [4], 4.26%; in the assay with PANC-1 [5] it was 53.38%; with PANC-1 [6] it was 42.09%; with PANC-1 [7] it was “Dose-Dependent Effect”. Also, the Activity in the assay on PANC-1 [9] is 73.06%; in the assay on PANC-1 [10] it was 2.5%; with PANC-1 [11] it was “Dose-Dependent Effect”; in the assay on PANC-1 [12] it was 27.5%; in the assay with PANC-1 [13], 10.3%; with PANC-1 [16], 2%. Besides, the Activity in the assay with PANC-1 [17] worked out at 31.2%. In addition, the half-maximal inhibitory concentration (IC50) in the assay on MRC5 was 49 µM; in the assay on MCF7 it was 20.2 µM; in the assay on Caco-2, 20 µM; in the assay with MDA-MB-231 it was 16.3 µM; with PANC-1 [1], 4.3 µM. The viability at 10 µM in the assay with PANC-1 [14] stood at 52.2%. Further, the viability at 5 µM in the assay on PANC-1 [15] came out at 64.1%.
Take `O=[N+]([O-])c1ccc(/C=C/c2nnc(-c3[nH]nc4c3Cc3ccccc3-4)o2)cc1`: the IC50 stood at 66 µM with MRC5; 41.9 µM with MCF7; 17.7 µM with Caco-2; 18.5 µM with MDA-MB-231; 18.3 µM in the assay with PANC-1 [1].
The matching figures for `COc1cc2c(cc1OC)-c1n[nH]c(-c3nnc(/C=C/c4ccccc4)o3)c1C2`: 65 µM, 32.9 µM, 15 µM, 11.5 µM and 30.9 µM.
As to `COc1ccc(/C=C/c2nnc(-c3[nH]nc4c3Cc3cc(OC)ccc3-4)o2)cc1`, the half-inhibitory concentration (IC50) was 54 µM with MRC5; 60.2 µM in the assay with MCF7; 10.6 µM in the assay on Caco-2; 16.6 µM in the assay with MDA-MB-231; 17.4 µM in the assay on PANC-1 [1].
On to `COc1ccc(/C=C/c2nnc(-c3[nH]nc4c3Cc3cc(OC)c(OC)cc3-4)o2)cc1`, for which the IC50 with MRC5 was 89 µM; in the assay on MCF7, 10.1 µM; with Caco-2, 14.9 µM; in the assay with MDA-MB-231, 25 µM; in the assay with PANC-1 [1], 27.3 µM.
The corresponding values for `Fc1ccc2c(c1)Cc1c-2n[nH]c1-c1nnc(/C=C/c2ccccc2)o1` are 66 µM, 60.4 µM, 15.9 µM, 18 µM and 21.5 µM.
The corresponding values for `COc1cc(/C=C/c2nnc(-c3[nH]nc4c3Cc3ccccc3-4)o2)cc(OC)c1OC` are 55 µM, 37.2 µM, 31.7 µM, 18.4 µM and 24.2 µM.
The corresponding values for `Nc1ccn([C@@H]2O[C@H](CO)[C@@H](O)C2(F)F)c(=O)n1` [GEMCITABINE] are 80 µM, 6.1 µM, 9.4 µM, 8 µM and 4.2 µM.

(Values after ChEMBL document CHEMBL4834439, “New indenopyrazole linked oxadiazole conjugates as anti-pancreatic cancer agents: Design, synthesis, in silico studies including 3D-QSAR analysis” (Bioorg Med Chem Lett, 2021).)
